For three compounds, IC50 results are on record in doi:10.1101/836932v1 (biorxiv, 2019).

Bounds are passed on as bounds.

The target in this assay is T1, MLLT3 (AF9) (Homo sapiens, UniProt P42568).
T1 sequence (P42568 1-138 limits assumed): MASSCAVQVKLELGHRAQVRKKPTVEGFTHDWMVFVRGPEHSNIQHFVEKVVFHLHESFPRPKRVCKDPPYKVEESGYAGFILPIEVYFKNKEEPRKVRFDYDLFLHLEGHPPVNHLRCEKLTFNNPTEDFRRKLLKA
Kind of assay: AlphaScreen. The format is binding.
In the case of `O=C(NCc1ccc(CN2CCCC2)cc1)N1CCN(C(=O)c2cccs2)CC1` [compound 2, piperazine-1-carboxamide 2], inhibition was half-maximal at 33 µM (IC50).
Under `CCN(CC)Cc1ccc(CNC(=O)N2CCN(c3ncccn3)CC2)cc1` [compound 3, piperazine-1-carboxamide 3] stands above 100 µM.
Under `COc1ccc(CNC(=O)N2CCN(c3ccc(C(C)=O)cc3)CC2)cn1` [compound 1, piperazine-1-carboxamide 1] stands 7.8 µM.

The term IC50 denotes the point on the concentration scale where inhibition reaches its midpoint. Low readings indicate greater potency, high ones weaker potency.
